Test results from US20050176655A1, “Novel macrolide derivatives havaing effect of potentiating antifungal activity” (priority 2002, published 2005).

How the values were obtained:
Experiment in all cases: Paper disk method, enhancing action for activities of azole antifungal agents
Type in all cases: cell-based
[1] = test system: fluconazole resistant Candida albicans ATCC 64550; settings: 24 hours; for Inhibition activity (inhibition ring mm) C. albicans ATCC 64550 GYF / Transparency of the inhibition ring C. albicans ATCC 64550 GYF: fluconazole 30 μg/ml; for Inhibition activity (inhibition ring mm) C. albicans ATCC 64550 GYM / Transparency of the inhibition ring C. albicans ATCC 64550 GYM: miconazole 0.15 μg/ml
In short: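 Paper disk assay on GY agar (pH 6.0) seeded with Waksman-broth-grown C. albicans ATCC 64550 (0.1% inoculum). Medium was supplemented with sub-growth-inhibitory miconazole 0.15 μg/ml or fluconazole 30 μg/ml. After 24 h, inhibition-zone diameter was measured in mm and transparency graded A–E (A most transparent, E opaque).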

[2] = test system: Candida albicans ATCC 64548; settings: 24 hours; for Inhibition activity (inhibition ring mm) C. albicans ATCC 64548 GYM / Transparency of the inhibition ring C. albicans ATCC 64548 GYM: miconazole 0.03 μg/ml; for Inhibition activity (inhibition ring mm) C. albicans ATCC 64548 GYF / Transparency of the inhibition ring C. albicans ATCC 64548 GYF: fluconazole 0.5 μg/ml
In short: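 GY agar (pH 6.0) seeded with C. albicans ATCC 64548 precultured in Waksman broth at 27° C for 40 hours, supplemented with sub-growth-inhibitory miconazole 0.03 μg/ml or fluconazole 0.5 μg/ml. Paper disk method; inhibition-zone diameter (mm) read after 24 hours, transparency graded A–E.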

[3] = test system: Aspergillus niger ATCC 6275; settings: 48 hours; for Inhibition activity (inhibition ring mm) A. niger ATCC 6275 GY / Transparency of the inhibition ring A. niger ATCC 6275 GY: GY medium (control, no azole); for Inhibition activity (inhibition ring mm) A. niger ATCC 6275 GYF / Transparency of the inhibition ring A. niger ATCC 6275 GYF: fluconazole 10 μg/ml; for Inhibition activity (inhibition ring mm) A. niger ATCC 6275 GYM / Transparency of the inhibition ring A. niger ATCC 6275 GYM: miconazole 0.1 μg/ml
In short: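 Paper-disk assay on A. niger ATCC 6275 spores (0.2%) seeded on GY agar pH 6.0. After 48 h, inhibition-zone diameter recorded in mm and transparency graded A (transparent) to E (opaque).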

## CCCCCC(=O)OC1C(C)OC(OC2C(C)C(=O)OC(C(C)(O)C(CC)OC(=O)CCCCC)C(C)C3=C(C)CC(C)(O3)C(OC3OC(C)CC(NC)C3O)C2C)CC1(C)OC (centres unmarked) [Compound 852]
[1]; 10 μg/8 mm disk
  Inhibition activity (inhibition ring mm) C. albicans ATCC 64550 GYF: 9 mm
  Transparency of the inhibition ring C. albicans ATCC 64550 GYF: C (Growth of test organism was inhibited 55% or more and 75% or less.)
  Inhibition activity (inhibition ring mm) C. albicans ATCC 64550 GYM: 9 mm
  Transparency of the inhibition ring C. albicans ATCC 64550 GYM: C (Growth of test organism was inhibited 55% or more and 75% or less.)
[1]; 50 μg/8 mm disk
  Inhibition activity (inhibition ring mm) C. albicans ATCC 64550 GYF: 11 mm
  Transparency of the inhibition ring C. albicans ATCC 64550 GYF: A (Growth of test organism was inhibited 95% or more.)
  Inhibition activity (inhibition ring mm) C. albicans ATCC 64550 GYM: 10 mm
  Transparency of the inhibition ring C. albicans ATCC 64550 GYM: B (Growth of test organism was inhibited 75% of more and 95% or less.)
[1]; 100 μg/8 mm disk
  Inhibition activity (inhibition ring mm) C. albicans ATCC 64550 GYF: 12 mm
  Transparency of the inhibition ring C. albicans ATCC 64550 GYF: A (Growth of test organism was inhibited 95% or more.)
  Inhibition activity (inhibition ring mm) C. albicans ATCC 64550 GYM: 12 mm
  Transparency of the inhibition ring C. albicans ATCC 64550 GYM: B (Growth of test organism was inhibited 75% of more and 95% or less.)
[2]; 50 μg/8 mm disk
  Inhibition activity (inhibition ring mm) C. albicans ATCC 64548 GYM: 9 mm
  Transparency of the inhibition ring C. albicans ATCC 64548 GYM: A (Growth of test organism was inhibited 95% or more.)
[2]; 100 μg/8 mm disk
  Inhibition activity (inhibition ring mm) C. albicans ATCC 64548 GYM: 10 mm
  Transparency of the inhibition ring C. albicans ATCC 64548 GYM: A (Growth of test organism was inhibited 95% or more.)
[3]; 50 μg/8 mm disk
  Inhibition activity (inhibition ring mm) A. niger ATCC 6275 GY: 9 mm
  Transparency of the inhibition ring A. niger ATCC 6275 GY: E (Growth of test organism was inhibited 35% or less.)
  Inhibition activity (inhibition ring mm) A. niger ATCC 6275 GYF: 8 mm
  Transparency of the inhibition ring A. niger ATCC 6275 GYF: D (Growth of test organism was inhibited 35% or more and 55% or less.)
  Inhibition activity (inhibition ring mm) A. niger ATCC 6275 GYM: 8 mm
  Transparency of the inhibition ring A. niger ATCC 6275 GYM: C (Growth of test organism was inhibited 55% or more and 75% or less.)
[3]; 100 μg/8 mm disk
  Inhibition activity (inhibition ring mm) A. niger ATCC 6275 GY: 10 mm
  Transparency of the inhibition ring A. niger ATCC 6275 GY: E (Growth of test organism was inhibited 35% or less.)
  Inhibition activity (inhibition ring mm) A. niger ATCC 6275 GYF: 9 mm
  Transparency of the inhibition ring A. niger ATCC 6275 GYF: D (Growth of test organism was inhibited 35% or more and 55% or less.)
  Inhibition activity (inhibition ring mm) A. niger ATCC 6275 GYM: 9 mm
  Transparency of the inhibition ring A. niger ATCC 6275 GYM: A (Growth of test organism was inhibited 95% or more.)

## CCC(OC(C)=O)C(C)(O)C1OC(=O)C(C)C(OC2CC(C)(OC)C(OC(C)=O)C(C)O2)C(C)C(OC2OC(C)CC(N(C)C)C2O)C2(C)CC(C)=C(O2)C1C (centres unmarked) [Compound 755, 4″,13-Di-O-acetyl-8,9-Anhydro-pseudo erythromycin A 6,9-hemiketal]
[1]; 100 μg/8 mm disk
  Inhibition activity (inhibition ring mm) C. albicans ATCC 64550 GYM: 10 mm
  Transparency of the inhibition ring C. albicans ATCC 64550 GYM: E (Growth of test organism was inhibited 35% or less.)
[2]; 100 μg/8 mm disk
  Inhibition activity (inhibition ring mm) C. albicans ATCC 64548 GYM: 17 mm
  Transparency of the inhibition ring C. albicans ATCC 64548 GYM: D (Growth of test organism was inhibited 35% or more and 55% or less.)
[3]; 50 μg/8 mm disk
  Inhibition activity (inhibition ring mm) A. niger ATCC 6275 GYM: 16 mm
  Transparency of the inhibition ring A. niger ATCC 6275 GYM: E (Growth of test organism was inhibited 35% or less.)

## CCCCCC(=O)OC1C(C)OC(OC2C(C)C(=O)OC(C(C)(O)C(CC)OC(=O)CCCCC)C(C)C3=C(C)CC(C)(O3)C(OC3OC(C)CC(N(C)CC)C3O)C2C)CC1(C)OC (centres unmarked) [Compound 853, 4″,13-Di-O-hexanoyl-de(3′-N-methyl)-N-ethyl-8,9-Anhydro-pseudoerythromycin A 6,9-hemiketal]
[1]; 10 μg/8 mm disk
  Inhibition activity (inhibition ring mm) C. albicans ATCC 64550 GYF: 11 mm
  Transparency of the inhibition ring C. albicans ATCC 64550 GYF: D (Growth of test organism was inhibited 35% or more and 55% or less.)
[1]; 50 μg/8 mm disk
  Inhibition activity (inhibition ring mm) C. albicans ATCC 64550 GYF: 14 mm
  Transparency of the inhibition ring C. albicans ATCC 64550 GYF: A (Growth of test organism was inhibited 95% or more.)
  Inhibition activity (inhibition ring mm) C. albicans ATCC 64550 GYM: 15 mm
  Transparency of the inhibition ring C. albicans ATCC 64550 GYM: A (Growth of test organism was inhibited 95% or more.)
[1]; 100 μg/8 mm disk
  Inhibition activity (inhibition ring mm) C. albicans ATCC 64550 GYF: 15 mm
  Transparency of the inhibition ring C. albicans ATCC 64550 GYF: A (Growth of test organism was inhibited 95% or more.)
  Inhibition activity (inhibition ring mm) C. albicans ATCC 64550 GYM: 16 mm
  Transparency of the inhibition ring C. albicans ATCC 64550 GYM: A (Growth of test organism was inhibited 95% or more.)
[2]; 10 μg/8 mm disk
  Inhibition activity (inhibition ring mm) C. albicans ATCC 64548 GYF: 9 mm
  Transparency of the inhibition ring C. albicans ATCC 64548 GYF: E (Growth of test organism was inhibited 35% or less.)
  Inhibition activity (inhibition ring mm) C. albicans ATCC 64548 GYM: 10 mm
  Transparency of the inhibition ring C. albicans ATCC 64548 GYM: B (Growth of test organism was inhibited 75% of more and 95% or less.)
[2]; 50 μg/8 mm disk
  Inhibition activity (inhibition ring mm) C. albicans ATCC 64548 GYF: 14 mm
  Transparency of the inhibition ring C. albicans ATCC 64548 GYF: B (Growth of test organism was inhibited 75% of more and 95% or less.)
  Inhibition activity (inhibition ring mm) C. albicans ATCC 64548 GYM: 14 mm
  Transparency of the inhibition ring C. albicans ATCC 64548 GYM: A (Growth of test organism was inhibited 95% or more.)
[2]; 100 μg/8 mm disk
  Inhibition activity (inhibition ring mm) C. albicans ATCC 64548 GYF: 16 mm
  Transparency of the inhibition ring C. albicans ATCC 64548 GYF: B (Growth of test organism was inhibited 75% of more and 95% or less.)
  Inhibition activity (inhibition ring mm) C. albicans ATCC 64548 GYM: 15 mm
  Transparency of the inhibition ring C. albicans ATCC 64548 GYM: A (Growth of test organism was inhibited 95% or more.)
[3]; 10 μg/8 mm disk
  Inhibition activity (inhibition ring mm) A. niger ATCC 6275 GY: 10 mm
  Transparency of the inhibition ring A. niger ATCC 6275 GY: E (Growth of test organism was inhibited 35% or less.)
  Inhibition activity (inhibition ring mm) A. niger ATCC 6275 GYF: 9 mm
  Transparency of the inhibition ring A. niger ATCC 6275 GYF: E (Growth of test organism was inhibited 35% or less.)
  Inhibition activity (inhibition ring mm) A. niger ATCC 6275 GYM: 10 mm
  Transparency of the inhibition ring A. niger ATCC 6275 GYM: E (Growth of test organism was inhibited 35% or less.)
[3]; 50 μg/8 mm disk
  Inhibition activity (inhibition ring mm) A. niger ATCC 6275 GY: 12 mm
  Transparency of the inhibition ring A. niger ATCC 6275 GY: D (Growth of test organism was inhibited 35% or more and 55% or less.)
  Inhibition activity (inhibition ring mm) A. niger ATCC 6275 GYF: 13 mm
  Transparency of the inhibition ring A. niger ATCC 6275 GYF: B (Growth of test organism was inhibited 75% of more and 95% or less.)
  Inhibition activity (inhibition ring mm) A. niger ATCC 6275 GYM: 15 mm
  Transparency of the inhibition ring A. niger ATCC 6275 GYM: B (Growth of test organism was inhibited 75% of more and 95% or less.)
[3]; 100 μg/8 mm disk
  Inhibition activity (inhibition ring mm) A. niger ATCC 6275 GY: 13 mm
  Transparency of the inhibition ring A. niger ATCC 6275 GY: D (Growth of test organism was inhibited 35% or more and 55% or less.)
  Inhibition activity (inhibition ring mm) A. niger ATCC 6275 GYF: 14 mm
  Transparency of the inhibition ring A. niger ATCC 6275 GYF: B (Growth of test organism was inhibited 75% of more and 95% or less.)
  Inhibition activity (inhibition ring mm) A. niger ATCC 6275 GYM: 16 mm
  Transparency of the inhibition ring A. niger ATCC 6275 GYM: B (Growth of test organism was inhibited 75% of more and 95% or less.)
